“Also recorded” adds a separate entry of the source. Like-named read-outs stand apart in the source and are kept apart here.
Columns and labels:
KLK7 [1] = target: T1, KLK7 (Homo sapiens, UniProt P49862); type: binding
KLK6 [2] = target: T2, KLK6 (Homo sapiens, UniProt Q92876); test: Western-like blotting with activity-based probe; type: binding; details: enzyme reacted with probe 2 or 16 hours
Experimental: (§1) For Western-like blotting, the enzymes were reacted with Biotin-FFP for 2 or 16 hours, resolved on SDS-PAGE, then, the proteins were transferred on PVDF membranes. Membranes were blocked with 3% BSA in PBS for 40 min at room temperature, washed twice with PBS and incubated for 1 hour at room temperature with streptavidin-HRP polymer (1:2,000) and subsequently washed four times with PBS containing 0.05% Tween-20. Specific bands were identified with ECL.

trypsin [3] = test: Western-like blotting with activity-based probe; type: binding; details: enzyme reacted with probe 2 or 16 hours
Experimental: as §1

[4] = system: skin of wildtype (wt) or Klk5^-/- mice; test: erythema/eschar and oedema scoring after application on the skin; type: in vivo; set-up: key to Erythema and Eschar Score after (hrs) 4 / Erythema and Eschar Score after (hrs) 24 / Erythema and Eschar Score after (hrs) 48 / Erythema and Eschar Score after (hrs) 72: 0: No erythema; 1: Very slight erythema (barely perceptible); 2: Well defined erythema; 3: Moderate to severe erythema; 4: Severe erythema (beef redness); key to Oedema Score after (hrs) 4 / Oedema Score after (hrs) 24 / Oedema Score after (hrs) 48 / Oedema Score after (hrs) 72: 0: No oedema; 1: Very slight oedema (barely perceptible); 2: Slight oedema (edges of area well defined by definite raising); 3: Moderate oedema (raised approximately 1mm); 4: Severe erythema (raised more than 1mm and extending beyond area of exposure); details: for erythema or oedema in vivo: 1 mM on the skin of wildtype (wt) or Klk5^-/- mice; for erythema or oedema in vivo / toxicity: result in words; for Erythema and Eschar Score after (hrs) 4 / Oedema Score after (hrs) 4 / Erythema and Eschar Score after (hrs) 24 / Oedema Score after (hrs) 24 / Erythema and Eschar Score after (hrs) 48 / Oedema Score after (hrs) 48 / Erythema and Eschar Score after (hrs) 72 / Oedema Score after (hrs) 72: 1 mM on the skin; for Erythema and Eschar Score after (hrs) 4 / Oedema Score after (hrs) 4: 4 hrs; for Erythema and Eschar Score after (hrs) 24 / Oedema Score after (hrs) 24: 24 hrs; for Erythema and Eschar Score after (hrs) 48 / Oedema Score after (hrs) 48: 48 hrs; for Erythema and Eschar Score after (hrs) 72 / Oedema Score after (hrs) 72: 72 hrs; for toxicity: wild type and Klk5^-/- mice
Text: Scoring was based on the following criteria (Table 2 and 3): Table 2 - Scoring criteria for erythema and eschar formation

KLK7 [5] = target: T1, KLK7; test: gel zymography (casein); type: biochemical
KLK13 = target: T3, KLK13 (Homo sapiens, UniProt Q9UKR3); test: gel zymography, specificity; type: biochemical; details: 2 hours at room temperature
T3 sequence (Q9UKR3 17-277): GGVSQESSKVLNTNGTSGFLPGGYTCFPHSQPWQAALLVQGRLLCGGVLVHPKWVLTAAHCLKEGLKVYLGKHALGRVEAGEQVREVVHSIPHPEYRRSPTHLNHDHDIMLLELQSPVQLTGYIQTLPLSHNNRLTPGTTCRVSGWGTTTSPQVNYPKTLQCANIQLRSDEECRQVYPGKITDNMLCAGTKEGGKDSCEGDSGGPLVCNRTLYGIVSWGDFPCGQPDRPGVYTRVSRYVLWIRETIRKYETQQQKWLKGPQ
Experimental: (§2) For gel zymography, the compounds were reacted with the enzymes at room temperature for 2 hours, then mixed with zymogram loading buffer without mercaptoethanol, incubated at 37°C for 15 min and resolved on 12% SDS-PAGE containing 0.1% casein or gelatin substrates. Gels were washed twice with 50 mM Tris-HCI pH 7.5, 5 mM CaCl2, 2.5% Triton X-100 for 15 min, then 15 min with 50 mM Tris-HCI, pH 7.5, 5 mM CaCl2, 0.1% Triton X-100, and finally incubated in the latter buffer for 24 hours and stained with Coomassie G-250. Proteolytic bands appear white against a blue background.

KLK6 [6] = target: T2, KLK6; test: gel zymography, specificity; type: biochemical; details: 2 hours at room temperature
Experimental: as §2

elastase (ELA) = test: gel zymography, specificity; type: biochemical; details: 2 hours at room temperature
Experimental: as §2

trypsin [7] = test: gel zymography, specificity; type: biochemical; details: 2 hours at room temperature
Experimental: as §2

KLK6 [8] = target: T2, KLK6; test: enzyme kinetic study, cleavage of fluorescent substrate Z-Phe-Arg-AMC; type: biochemical
Experimental: (§3) The enzyme kinetic study testing the ability of Boc-FFP to inhibit trypsin or KLK6 was performed with cleavage of fluorescent substrate Z-Phe-Arg-AMC. The enzymes were used at 12 nM and the substrate at 50 µM. Boc-FFP was used at 1.2 µM (100:1 molar ration inhibitor: enzyme). Aprotinin was used a positive control at 500 nM final concentration. Fluorescence was measured (λexc=380 nm, λem=440 nm) for 3 min and the results were expressed as ΔF/Δt.

trypsin [9] = test: as above; type: biochemical
Experimental: as §3

KLK7 [10] = target: T1, KLK7; test: KLK7 inhibition study for IC50 determination, BODIPY-FL casein substrate; type: biochemical; details: KLK7 6 nM, inhibitor 50 nM to 10 µM, 16 hours at room temperature, BODIPY-FL casein 30 µg/ml
Experimental: For IC50 determination, KLK7 inhibition study was carried out in assay buffer (100 mM Tris-HCI, pH 7.8, 100 mM NaCl, 10 mM CaCl2, 0.005% Triton X-100). KLK7 (6 nM) was incubated with the inhibitor (50 nM to 10 µM) for 16 hours at room temperature in the assay buffer. Then, the BODIPY-FL casein substrate (Molecular Probes) was added at 30 µg/ml and fluorescence was measured (λexc=485 nm, λem=530 nm). After 3 hours the fluorescence was measured again. Data were inserted into the online available program Very Simple IC50 Tool (http://www.ic50.tk/) for fitting and calculation of the IC50.

Spink5^-/^-Klk5^-/- mice = test: application on the skin of Spink5^-/^-Klk5^-/- mice (desquamation, inflammatory cytokines); type: in vivo
[11] = enzyme kinetic study, result in words
[12] = gel zymography, casein, compound reacted with enzyme 2 hours at room temperature

T1 sequence (P49862 30-253): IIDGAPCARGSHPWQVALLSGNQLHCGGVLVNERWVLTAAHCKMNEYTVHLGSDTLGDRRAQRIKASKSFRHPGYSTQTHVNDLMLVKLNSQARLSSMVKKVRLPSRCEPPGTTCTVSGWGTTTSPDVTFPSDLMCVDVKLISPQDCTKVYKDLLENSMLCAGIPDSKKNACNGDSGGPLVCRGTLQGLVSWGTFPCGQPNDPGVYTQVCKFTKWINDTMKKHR

SMILES | erythema or oedema in vivo [4] | Erythema and Eschar Score after (hrs) 4 ([4]; Klk5^-/- mice) | Oedema Score after (hrs) 4 ([4]; Klk5^-/- mice) | Erythema and Eschar Score after (hrs) 24 ([4]; Klk5^-/- mice) | Oedema Score after (hrs) 24 ([4]; Klk5^-/- mice) | Erythema and Eschar Score after (hrs) 48 ([4]; Klk5^-/- mice) | Oedema Score after (hrs) 48 ([4]; Klk5^-/- mice) | Erythema and Eschar Score after (hrs) 72 ([4]; Klk5^-/- mice) | Oedema Score after (hrs) 72 ([4]; Klk5^-/- mice) | toxicity [4] | Erythema and Eschar Score after (hrs) 4 ([4]; wt mice) | Oedema Score after (hrs) 4 ([4]; wt mice) | Erythema and Eschar Score after (hrs) 24 ([4]; wt mice) | Oedema Score after (hrs) 24 ([4]; wt mice) | Erythema and Eschar Score after (hrs) 48 ([4]; wt mice) | Oedema Score after (hrs) 48 ([4]; wt mice) | Erythema and Eschar Score after (hrs) 72 ([4]; wt mice) | Oedema Score after (hrs) 72 ([4]; wt mice) | inhibition of KLK7 activity (KLK7 [5]; [12]) | other results
O=C(CCCCCNC(=O)CCCC[C@H]1SCC2NC(=O)NC21)NCCCCCC(=O)NC(Cc1ccccc1)C(=O)NC(Cc1ccccc1)P(=O)(Oc1ccccc1)Oc1ccccc1 (stereo partly drawn) [Biotin-FFP, diphenyl 1-(2-(6-(6-(5-((4R)-2-oxo-hexahydro-1H-thieno[3,4-d]imidazole-4-yl)pentanamido)hexanamido)hexanamido)-3-phenylpropanamido)-2-phenylethylphosphonate] | did not exhibit either erythema or oedema | 0 | 0 | 0 | 0 | 0 | 0 | 0 | 0 | lack toxicity | 0 | 0 | 0 | 0 | 0 | 0 | 0 | 0 |  | detection of active KLK7 (KLK7 [1]): only detected the active KLK7; labeling of KLK7, signal (KLK7 [1]): higher signal compared to Biotin-FbFP; also recorded: significant signal enhancement; detection of KLK6 (KLK6 [2]): does not react with KLK6 and trypsin; detection of trypsin (trypsin [3]): not the trypsin or the KLK6; also recorded: does not react with KLK6 and trypsin
CC(C)(C)OC(=O)NC(Cc1ccccc1)C(=O)NC(Cc1ccccc1)P(=O)(Oc1ccccc1)Oc1ccccc1 (stereo not drawn) [Boc-FFP, tert-butvl 1-(1-(diphenoxvphosphorvl)-2-phenylethylamino)-1-oxo-3-phenylpropan-2-ylcarbamate] | did not exhibit either erythema or oedema | 0 | 0 | 0 | 0 | 0 | 0 | 0 | 0 | lack toxicity | 0 | 0 | 0 | 0 | 0 | 0 | 0 | 0 |  | inhibition of KLK7 activity (KLK7 [5]): only Boc-FFP could effectively inhibit KLK7 activity; also recorded: can also inhibit the KLK7 activity; also recorded: can only inhibit the activity of KLK7; also recorded: Only KLK7 was inhibited; inhibition of KLK13 (KLK13): Only KLK7 was inhibited; inhibition of KLK6 (KLK6 [6]): Only KLK7 was inhibited; inhibition of elastase (ELA) (elastase (ELA)): Only KLK7 was inhibited; inhibition of trypsin (trypsin [7]): Only KLK7 was inhibited; ΔF/Δt (KLK6 [8]; KLK6 12 nM, Z-Phe-Arg-AMC 50 µM, change in fluorescence over 3 min, Boc-FFP 1.2 µM pre-incubated 2 hours, Aprotinin 500 nM, KLK6 alone 35.54): 37.96; inhibition of the activity of KLK6 (KLK6 [8]; [11]): did not inhibit; inhibition of the activity of trypsin (trypsin [9]; [11]): did not inhibit; ΔF/Δt (trypsin [9]; trypsin 12 nM, Z-Phe-Arg-AMC 50 µM, change in fluorescence over 3 min, Boc-FFP 1.2 µM pre-incubated 2 hours, Aprotinin 500 nM, trypsin alone 33.49): 33.26; IC50 (KLK7 [10]): 1910 nM; reduction of macroscopic desquamation (Spink5^-/^-Klk5^-/- mice; application on the skin of Spink5^-/^-Klk5^-/- mice, versus solvent control side): approximately 50%; expression of inflammatory cytokines (Spink5^-/^-Klk5^-/- mice; skin of Spink5^-/^-Klk5^-/- mice, RT-qPCR, versus solvent treatment): suppressed the expression of inflammatory cytokines
CC(C)(C)OC(=O)NC(Cc1ccccc1)C(=O)NC(c1ccccc1)P(=O)(Oc1ccccc1)Oc1ccccc1 (stereo not drawn) [Boc-FbFP] |  |  |  |  |  |  |  |  |  |  |  |  |  |  |  |  |  |  | only Boc-FFP can inhibit the activity of KLK7 | 
CC(C)(C)OC(=O)NC(Cc1ccccc1)C(=O)NC(CCc1ccccc1)P(=O)(Oc1ccccc1)Oc1ccccc1 (stereo not drawn) [Boc-FcFP] |  |  |  |  |  |  |  |  |  |  |  |  |  |  |  |  |  |  | only Boc-FFP can inhibit the activity of KLK7 | 

From patent EP3653215A1, “THERANOSTIC INHIBITORS AND ACTIVITY-BASED PROBES FOR THE KLK7 PROTEASE” (University of Patras, priority 2018, dated 2020)
